Entries after “also recorded” stand apart in the source; their conditions may differ. Where two headings read alike, the source gives them in different places.
Tests used:
[1] = target: Btk kinase (Homo sapiens (Human), UniProt Q06187); assay: Btk kinase enzymatic activity assay (HTRF); type: biochemical
Protocol: The half inhibition concentrations (IC50 values) of the compounds disclosed herein on Btk were determined at both enzymatic level and cellular level: the ability of the compounds to inhibit the activity of Btk kinase was determined in an enzymtic activity assay, and the inhibitory effect of the compounds on BCR-induced calcium flux in cells was determined in a cellular function assay.
(§1) The compounds were gradiently diluted 3 folds starting from 1 mM with 100% DMSO (totally 11 concentrations). 4 μL of each sample with a different concentration was added into 96 μL of reaction buffer (50 mM HEPES, pH 7.4, 10 mM MgCl2, 1 mM EGTA, 0.01% Tween-20, 0.005% BAS, 2 mM DTT). […] The mixture was centrifuged to mix well, followed by adding 2.5 μL of a mixture of ATP (final concentration designated as Km) and TK petide (HTRF® KinEASE™-TK, Cisbio) to initiate the reaction (total reaction volume being 10 μL). […] The enzyme activity for each compound was determined at 11 concentrations, and IC50 values were obtained by GraFit Software 6.0 (Erithacus Software).

[2] = target: ITK kinase (Homo sapiens (Human), UniProt Q08881); assay: ITK kinase enzymatic assay (same HTRF method as BTK); type: biochemical
Sequence of ITK kinase (Q08881 whole entry): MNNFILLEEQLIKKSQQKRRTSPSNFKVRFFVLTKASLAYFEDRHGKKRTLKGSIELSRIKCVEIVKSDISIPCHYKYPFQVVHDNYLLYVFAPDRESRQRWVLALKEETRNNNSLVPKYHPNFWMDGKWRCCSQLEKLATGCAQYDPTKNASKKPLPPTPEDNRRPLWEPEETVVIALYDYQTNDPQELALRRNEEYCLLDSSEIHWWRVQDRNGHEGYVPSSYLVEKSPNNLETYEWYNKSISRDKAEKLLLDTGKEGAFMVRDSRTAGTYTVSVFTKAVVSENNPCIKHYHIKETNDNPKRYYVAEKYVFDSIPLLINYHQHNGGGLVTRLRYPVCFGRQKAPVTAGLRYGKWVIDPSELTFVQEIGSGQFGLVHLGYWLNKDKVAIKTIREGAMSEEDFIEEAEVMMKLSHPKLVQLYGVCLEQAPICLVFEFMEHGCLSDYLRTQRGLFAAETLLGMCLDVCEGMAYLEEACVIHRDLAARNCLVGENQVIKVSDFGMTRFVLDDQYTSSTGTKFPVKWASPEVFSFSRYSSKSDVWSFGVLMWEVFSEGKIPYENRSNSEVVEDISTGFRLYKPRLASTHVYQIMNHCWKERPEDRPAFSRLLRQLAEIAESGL
Protocol: as §1
In vitro activity in inhibiting ITK kinase was determined similar to that in respect of BTK kinase.

[3] = system: OCI-LY-10 cells; assay: Efficacy in subcutaneously xenografted tumor model in mice; type: in vivo, CB-17 SCID mice; details: 100 mg/kg PO QD
Protocol: SPF grade female CB-17 SCID mice (4-5 week) were used. 0.1 ml of OCI-LY-10 cells suspended in serum-free medium (containing 5×10^6 cells, 30% Matrigel) were injected subcutaneously in both the left and the right flanks of mice. Mice were grouped and numbered when the average tumor volumes were more than 100 mm3, and the body weights and tumor volumes were determined. The mice were randomly grouped according to tumor volumes, and appropriate adjustments were made so that the average body weight in each group is on the same level. Animals were dosed orally on the same day when they were grouped, and body weights and tumor volumes were measured twice a week. Relative tumor growth (T/C) and Tumor growth inhibition (TGI) were the major test indeces.
The equation for calculating the tumor volume is V=0.5×a×b^2, wherein v is the tumor volume, a and b are the length and the width of the tumor, respectively. The relative tumor volume (RTV) was calculated according to the tumor volume with the equation RTV=Vt/V0, wherein V0 was the tumor volume at the time when the animals were grouped, and Vt was the tumor volume at indicated time points. The equation for calculating the relative tumor proliferation rate was T/C (%)=TRTV/CRTV*100%. (TRTV was the RTV of treated group, and CRTV was the RTV of control group).
The equation for calculating the tumor growth inhibition rate was TGI (%)=(1−(tumor volume of the treated group−tumor volume of the treated group at the time when the animals were grouped)/(tumor volume of the control group−tumor volume of the control group at the time when the animals were grouped))*100%.

[4] = Toxicity test in mice (7-day oral administration); type: in vivo, CD-1 (ICR) mice; details: for Average body weight of mice / Changes (%) in mice body weight in treated group over control group: 1000 mg/kg oral once a day
Source text: Body weights and conditions of mice were monitored every day, during which all mice were not fasting.

[5] = system: type II collagen-induced arthritis; assay: Type II collagen-induced arthritis mice model; type: in vivo, DBA/1 mice
Protocol: The mice were randomly grouped according to their arthritis scores when the onset of arthritis was observed after 4 weeks. Compounds were then administered continuously for 4 weeks, during which the arthritis scores were evaluated for each mouse and the body weights thereof were measure every other day. The criteria for evaluating the arthritis score were as follows:
1=erythema and mild swelling at ankle joint;
2=erythema and mild swelling from ankle joint to phalangeal joint or metacarpal joint;
3=erythema and moderate swelling from ankle joint to phalangeal joint or metacarpal joint;
4=erythema and severe swelling or ankylosis on whole foot including from ankle joint to phalangeal joint.
Each paw was scored according to the above criteria, and the highest score was 16.

[6] = 1000 mg/kg oral once a day for 7 days

Sequence of Btk kinase (Q06187 whole entry): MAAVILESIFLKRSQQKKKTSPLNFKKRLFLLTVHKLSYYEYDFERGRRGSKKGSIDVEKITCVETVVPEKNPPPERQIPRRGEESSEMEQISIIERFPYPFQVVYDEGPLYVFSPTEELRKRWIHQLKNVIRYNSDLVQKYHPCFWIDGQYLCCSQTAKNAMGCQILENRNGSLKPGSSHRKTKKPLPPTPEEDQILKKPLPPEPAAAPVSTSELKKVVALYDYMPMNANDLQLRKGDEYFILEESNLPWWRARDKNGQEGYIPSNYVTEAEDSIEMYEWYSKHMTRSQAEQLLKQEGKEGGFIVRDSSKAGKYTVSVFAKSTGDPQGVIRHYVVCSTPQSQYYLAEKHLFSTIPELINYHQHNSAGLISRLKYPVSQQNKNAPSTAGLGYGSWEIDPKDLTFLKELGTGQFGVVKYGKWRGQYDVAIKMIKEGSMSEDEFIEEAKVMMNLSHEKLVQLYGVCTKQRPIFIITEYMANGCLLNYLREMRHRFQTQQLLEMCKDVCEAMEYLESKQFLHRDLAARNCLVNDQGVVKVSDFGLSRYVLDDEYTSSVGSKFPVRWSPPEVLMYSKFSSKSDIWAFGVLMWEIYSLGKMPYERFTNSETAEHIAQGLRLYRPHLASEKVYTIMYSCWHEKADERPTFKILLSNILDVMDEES

SMILES: COC/C=C/C(=O)N1CC[C@@H](n2nc(-c3ccc(Oc4ccccc4)cc3)c(C(N)=O)c2N)C1 [Example 9, (R,E)-5-amino-1-(1-(4-methoxybut-2-enoyl)pyrrolidin-3-yl)-3-(4-phenoxyphenyl)-1H-pyrazole-4-carboxamide]
- IC50 ([1]; Table 1, read-out: Btk IC50): < 100 nM
- IC50 ([1]; Table 5, kinase selectivity test, read-out: IC50 (nM) BTK): 1.9 nM
- selectivity on BTK vs ITK ([1]; calculated from IC50 values): more than 1000 folds
- IC50 ([2]; Table 1, read-out: Itk IC50): > 1000 nM
- IC50 ([2]; Table 5, kinase selectivity test, read-out: IC50 (nM) ITK): > 1000 nM
- TGI (%) Day 3 ([3]; Day 3): 45.79%
- TGI (%) Day 8 ([3]; Day 8): 39.37%
- TGI (%) Day 11 ([3]; Day 11): 43.05%
- difference in body weight change from control group [4, 6]: < 2%
- toxicity [4, 6]: no toxicity
- Average body weight of mice ([4]; Day 1): 24.4 g
- Changes (%) in mice body weight in treated group over control group ([4]; Day 1): 100.0%
- Average body weight of mice ([4]; Day 2): 24.6 g
- Changes (%) in mice body weight in treated group over control group ([4]; Day 2): 100.0%
- Average body weight of mice ([4]; Day 3): 25.1 g
- Changes (%) in mice body weight in treated group over control group ([4]; Day 3): 100.3%
- Average body weight of mice ([4]; Day 4): 25.6 g
- Changes (%) in mice body weight in treated group over control group ([4]; Day 4): 101.1%
- Average body weight of mice ([4]; Day 5): 26.4 g
- Changes (%) in mice body weight in treated group over control group ([4]; Day 5): 101.8%
- Average body weight of mice ([4]; Day 6): 26.9 g
- Changes (%) in mice body weight in treated group over control group ([4]; Day 6): 101.7%
- Average body weight of mice ([4]; Day 7): 27.2 g
- Changes (%) in mice body weight in treated group over control group ([4]; Day 7): 101.7%
- therapeutic effect on arthritis at very low dosage ([5]; 0.3 mg/kg): good therapeutic effect; also recorded: comparable to that of 3 mg/kg of PCI-32765
- arthritis (arthritis score) after administration ([5]; administered continuously for 4 weeks, FIG. 1): significantly alleviated

— patent US10112922B2, “Inhibitor of bruton's tyrosine kinase” (Centaurus BioPharma Co., Ltd., priority 2014, dated 2018)
